Reference: patent US20250296971A1, “GASTRIC INHIBITORY PEPTIDE RECEPTOR LIGANDS” (priority 2021, published 2025)
Like-named read-outs stand apart in the source and are kept apart here. *1 amine or outer side, *2 acyl side, *3 side chain or, on linkers, in order; H or OH if unused. Where a SMILES comes first, the peptide text is derived from it. Bridges are numbered along the chain shown (N, C = ends). [ ]: non-standard residue; d: D form. The star is where a group is joined. ξ: configuration not given here. Ttds = 1,13-diamino-4,7,10-trioxatridecan-succinamic acid, NCCCOCCOCCOCCCNC(=O)CCC(=O)*; X3 = O=C(O)CN1CCN(CC(=O)O)CCN(CC(=O)NCCCOCCOCCOCCCN*)CCN(CC(=O)O)CC1; NH(1-deoxy-D-glucityl) = OC[C@@H](O)[C@@H](O)[C@H](O)[C@@H](O)CN*; DOTA = O=C(O)CN1CCN(CC(=O)O)CCN(CC(=O)*)CCN(CC(=O)O)CC1; Trp(5-Cl) = N[C@@H](Cc1c[nH]c2ccc(Cl)cc12)C(=O)O; Pyridine(2,6-diCH2) = c1cc(C[*:1])nc(C[*:2])c1; Phe(2,4-Cl2) = N[C@@H](Cc1ccc(Cl)cc1Cl)C(=O)O; mXylylene = c1cc(C[*:1])cc(C[*:2])c1; X7 = c1cc(CSCCN[*:2])cc(C[*:1])c1; Hyp = O=C(O)[C@@H]1C[C@@H](O)CN1; X1 = O=C(CN1CCC(N[*:1])CC1)[*:2]; Cysteamide = C(CS[*:3])N[*:1]; Suc = O=C(CCC(=O)[*:2])[*:1]; Thp = NC1(C(=O)O)CCOCC1; Aib = CC(C)(N)C(=O)O; ξP = O=C(O)C1CCCN1

T1: GIPR (CHO-K1-hGIPR cells) (Homo sapiens, UniProt P48546)
T1 construct: host or cells: CHO-K1
T1 sequence (P48546 22-466): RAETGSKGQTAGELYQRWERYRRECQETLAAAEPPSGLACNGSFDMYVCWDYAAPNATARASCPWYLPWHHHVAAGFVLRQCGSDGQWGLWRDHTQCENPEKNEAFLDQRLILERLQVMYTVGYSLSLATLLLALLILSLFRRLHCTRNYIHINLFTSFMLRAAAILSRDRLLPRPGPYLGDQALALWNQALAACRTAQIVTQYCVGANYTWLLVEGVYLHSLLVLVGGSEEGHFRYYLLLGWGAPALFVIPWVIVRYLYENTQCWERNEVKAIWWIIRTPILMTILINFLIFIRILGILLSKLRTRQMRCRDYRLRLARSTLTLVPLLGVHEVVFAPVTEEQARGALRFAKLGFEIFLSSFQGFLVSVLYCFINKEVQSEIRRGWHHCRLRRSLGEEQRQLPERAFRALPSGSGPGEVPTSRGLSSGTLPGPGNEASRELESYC

T2: human GIP receptor (bioGIPR) (Homo sapiens, UniProt P48546)
T2 construct: Biotinylate extracellular of the human GIP receptor (bioGIPR, Proteros biostructures GmbH, lot #02/2b); purchased Proteros biostructures GmbH lot #02/2b
T2 sequence (P48546 22-138 limits assumed): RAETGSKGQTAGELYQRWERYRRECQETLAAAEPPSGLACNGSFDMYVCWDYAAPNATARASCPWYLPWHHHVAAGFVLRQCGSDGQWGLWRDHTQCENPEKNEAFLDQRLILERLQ


Tests used:
[1] = target: T1, GIPR (CHO-K1-hGIPR cells); experiment: FACS binding assay; conditions: read-out: pIC50 Category (converted)
How it was run: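 Read-out: flow cytometric median fluorescence intensity, APC/Cy5 channel, plotted vs peptide conc.; 4PL fit → EC50/pEC50 or IC50/pIC50. Cells: CHO-K1-hGIPR, Accutase-detached, 500.000/mL in PBS + 1% FCS. Detection: APC-streptavidin 1 μg/mL, 30 min, on ice.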

[2] = target: T2, human GIP receptor (bioGIPR); experiment: Surface plasmon resonance (SPR) based binding assay; conditions: Single Cycle Kinetic mode, 25° C.
How it was run: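 Binding was measured at 25 °C by single-cycle kinetics against a reference flow cell, with blank-run and drift correction, after capturing biotinylated GIPR extracellular domain to ~3500 RU. Running buffer: HBST, 0.1% DMSO. A 1:1 Langmuir model gave kinetic rates, KD, t1/2 and pKD.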

[3] = Plasma stability assay, mouse plasma; format: in vitro ADME; conditions: 37° C., % intact compound remaining after 4 h or 24 h
Method: In order to determine the stability of selected compounds of the invention in human and mouse plasma, a plasma stability assay was carried out. Such plasma stability assay measures degradation of compounds of the present invention in blood plasma. This is an important characteristic of a compound as compounds, with the exception of pro-drugs, which rapidly degrade in plasma, generally show poor in vivo efficacy. […] The stability is sufficient for the diagnostic, therapeutic and theragnostic use of these compounds according to the present invention.
The plasma stability samples were prepared by spiking 50 μL plasma aliquots (all K2EDTA) with 1 μL of a 0.5 mM compound stock solution in DMS0. After vortexing the samples were incubated in a Thermomixer at 37° C. for 0, 4 and 24 hours. After incubation the samples were stored on ice until further treatment. All samples were prepared in duplicates.
A suitable internal standard was added to each sample (1 μL of a 0.5 mM stock solution in DMSO). Protein precipitation was performed by addition of 250 μL of acetonitrile containing 1% trifluoroacetic acid. After incubation at room temperature for 30 min the precipitate was separated by centrifugation and 150 μL of the supernatant was diluted with 150 μL of 1% aqueous formic acid.
Additionally, recovery was determined by spiking a pure plasma sample that only contained the internal standard after treatment with a certain amount of the compound.
Carry-over was evaluated by analysis of a blank sample (20% acetonitrile) after the highest calibration sample.

[4] = target: human Gastric Inhibitory Peptide Receptor (GIPR) (human) (UniProt P48546); experiment: FACS competition vs biotinylated GIP-057 on CHO-K1-hGIPR cells; category D: pIC50 <=6.0
[5] = competition with 20 nM GIP-057, 4° C., 1 hour

IC50 [1, 5]	Mouse plasma stability category [3]	pIC50 [4]	Molecule	other results
< 10 nM	A (>80% intact after 24 hours)		CC[C@H](C)[C@@H]1NC(=O)[C@H](CC(C)C)NC(=O)C2(CCOCC2)NC(=O)[C@@H](NC(=O)[C@@H](CC(C)C)NC(=O)[C@H](CCC(=O)O)NC(=O)[C@@H]2C[C@@H](O)CN2C(=O)[C@H](Cc2c[nH]c3ccc(Cl)cc23)NC(=O)[C@H](Cc2c[nH]c3ccccc23)NC(=O)[C@H](CC(=O)O)NC(=O)CN2CCC(NC(=O)[C@@H](CCC(=O)NC[C@H](O)[C@@H](O)[C@H](O)[C@H](O)CO)NC(=O)CN3CCN(CC(=O)O)CCN(CC(=O)O)CCN(CC(=O)O)CC3)CC2)CSCc2cccc(n2)CSC[C@@H](C(=O)NC2CCN(CC(=O)N[C@H](CCC(=O)NC[C@H](O)[C@@H](O)[C@H](O)[C@H](O)CO)C(N)=O)CC2)NC1=O [GIP-005, DOTA-glu(AGLU)-APAc-Asp-Trp-5Clw-Hyp-Glu-leu-[Cys(2Lut)-Thp-Leu-Ile-Cys]-APAc-glu(AGLU)-NH2] ({DOTA}-[dE](NH(1-deoxy-D-glucityl))[X1]DW[Trp(5-Cl)][Hyp]E[dL]C[Thp]LIC[X1][dE](NH(1-deoxy-D-glucityl))-NH2; linker 9-13 via Pyridine(2,6-diCH2))	t1/2 Category ([2]; SPR dissociation half-life): A (t1/2 values>15 min); Kd ([2]; SPR, 1:1 Langmuir binding model, read-out: pKD Category (converted)): < 1 nM
10 to 79.4 nM	B (>80% intact after 4 hours)		CC[C@H](C)[C@@H]1NC(=O)[C@H](CC(C)C)NC(=O)C(C)(C)NC(=O)[C@@H](NC(=O)[C@@H](CC(C)C)NC(=O)[C@H](CCC(=O)O)NC(=O)[C@@H]2CCCN2C(=O)[C@H](Cc2c[nH]c3ccccc23)NC(=O)[C@H](Cc2c[nH]c3ccccc23)NC(=O)[C@H](CC(=O)O)NC(=O)CCC(=O)NCCCOCCOCCOCCCNC(=O)CN2CCN(CC(=O)O)CCN(CC(=O)O)CCN(CC(=O)O)CC2)CSCc2cccc(c2)CSC[C@@H](C(N)=O)NC1=O [GIP-128, DOTA-Ttds-Asp-Trp-Trp-Pro-Glu-leu-[Cys(3MeBn)-Aib-Leu-Ile-Cys]-NH2] ({X3-Suc}-DWWPE[dL]C[Aib]LIC-NH2; linker 7-11 via mXylylene)	
10 to 79.4 nM	B (>80% intact after 4 hours)		CC[C@H](C)[C@@H]1NC(=O)[C@H](CC(C)C)NC(=O)C(C)(C)NC(=O)[C@@H](NC(=O)[C@@H](CC(C)C)NC(=O)[C@H](CCC(=O)O)NC(=O)[C@@H]2CCCN2C(=O)[C@H](Cc2c[nH]c3ccccc23)NC(=O)[C@H](Cc2c[nH]c3ccccc23)NC(=O)[C@H](CC(=O)O)NC(=O)CCC(=O)NCCCOCCOCCOCCCNC(=O)CN2CCN(CC(=O)O)CCN(CC(=O)O)CCN(CC(=O)O)CC2)CSCc2cccc(c2)CSCCNC1=O [GIP-129, DOTA-Ttds-Asp-Trp-Trp-Pro-Glu-leu-[Cys(3MeBn)-Aib-Leu-Ile-AET]] ({X3-Suc}-DWWPE[dL]C[Aib]LI; linker 7-C via X7)	
	B (>80% intact after 4 hours)		CC[C@H](C)[C@@H]1NC(=O)[C@H](CC(C)C)NC(=O)C(C)(C)NC(=O)[C@@H](NC(=O)[C@H](CC(C)C)NC(=O)[C@@H](CCC(=O)O)NC(=O)C2CCCN2C(=O)[C@H](Cc2c[nH]c3ccccc23)NC(=O)[C@H](Cc2c[nH]c3ccccc23)NC(=O)[C@H](CC(=O)O)NC(=O)CCC(=O)NCCCOCCOCCOCCCNC(=O)CN2CCN(CC(=O)O)CCN(CC(=O)O)CCN(CC(=O)O)CC2)CSCc2cccc(c2)CSC[C@@H](C(N)=O)NC1=O (stereo partly drawn) [GIP-270, DOTA-Ttds-Asp-Trp-Trp-Pro-glu-Leu-[Cys(3MeBn)-Aib-Leu-Ile-Cys]-NH2] ({X3-Suc}-DWW[ξP][dE]LC[Aib]LIC-NH2; linker 7-11 via mXylylene)	IC50 ([1]; competition with 20 nM GIP-057, 4° C. for 1 hour): 100 to 794 nM
		< 6 pic50	Ac-Asp-Trp-1Ni-Pro-Glu-Thi-[Cys(3MeBn)-Aib-Leu-Ile-Cys]-NH2 (peptide)	
		< 6 pic50	HO-Succinyl-Trp-Trp-Pro-Glu-leu-[Cys(3MeBn)-ala-Leu-Ile-Cys]-Ttds-Lys(DOTA)-NH2 (peptide)	
		< 6 pic50	{DOTA-Ttds}-WDP[Trp(5-Cl)][dL]ECLI[Aib][Cysteamide] (linker 7-11 via mXylylene) [DOTA-Ttds-Trp-Asp-Pro-5Clw-leu-Glu-[Cys(3MeBn)-Leu-Ile-Aib-AET]]	
		< 6 pic50	Ac-DW[Phe(2,4-Cl2)][Hyp]E[dL]C[Thp]LIC-NH2 (linker 7-11 via Pyridine(2,6-diCH2)) [Ac-Asp-Trp-Egm-Hyp-Glu-leu-[Cys(2Lut)-Thp-Leu-Ile-Cys]-NH2]	
